From patent publication US8735406B2, “8-oxodihydropurine derivative” (Dainippon Sumitomo Pharma Co., Ltd., priority 2009, dated 2014)
Where two headings read alike, the source gives them in different places.

Biological target: T1, FAAH (Rattus norvegicus, UniProt P97612)
T1 construct: Preparation of Rat Brain Membranes Preparations (FAAH Enzyme Solution); from tissue; host or cells: rat cerebrum (brain membrane preparation)
T1 sequence (P97612 1-579): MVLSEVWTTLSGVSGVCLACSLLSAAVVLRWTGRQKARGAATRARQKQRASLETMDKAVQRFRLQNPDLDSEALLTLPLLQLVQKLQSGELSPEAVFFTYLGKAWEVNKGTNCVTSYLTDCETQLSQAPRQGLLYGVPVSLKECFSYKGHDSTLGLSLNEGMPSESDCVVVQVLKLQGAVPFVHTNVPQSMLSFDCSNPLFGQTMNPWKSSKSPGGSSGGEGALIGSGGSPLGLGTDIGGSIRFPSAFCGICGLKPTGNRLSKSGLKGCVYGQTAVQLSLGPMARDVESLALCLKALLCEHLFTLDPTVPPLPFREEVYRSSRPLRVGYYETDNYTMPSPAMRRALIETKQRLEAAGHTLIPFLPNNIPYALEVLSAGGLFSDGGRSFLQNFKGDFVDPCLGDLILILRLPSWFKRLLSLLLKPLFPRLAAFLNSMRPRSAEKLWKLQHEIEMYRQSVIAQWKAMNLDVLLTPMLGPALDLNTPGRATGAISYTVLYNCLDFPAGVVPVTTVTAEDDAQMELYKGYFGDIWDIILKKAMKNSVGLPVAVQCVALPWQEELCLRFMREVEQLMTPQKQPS
Test: Determination of FAAH inhibitory activity in rat (rat brain membrane preparations, [3H]-anandamide hydrolysis)
Format: biochemical
Details: rat brain membrane preparations; for IC50: read-out: FAAH Inhibition IC50
Procedure, shortened: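 Rat cerebrum membranes (100 μg/mL protein) preincubated 10 min at 37 °C with compound (1% DMSO) in pH 7.6 Tris buffer with 1.5% BSA. Substrate 2 nM [3H]-anandamide plus 2 μM anandamide added for 10 min at 37 °C. [3H]-ethanolamine in the aqueous phase after chloroform/methanol extraction was scintillation counted; IC50 over 0.1 nM–1 μM.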

[1] = 100 nM test substance, read-out: FAAH Inhibition, Inhibition Rate at 100 nM
[2] = at 100 nM, read-out: FAAH Inhibition Inhibition Rate at 100 nM

| SMILES | inhibition at 0.1 µM [1] [%] | IC50 (test substance 0.1 nM to 1 μM) [nM] | inhibition at 0.1 µM [2] [%] | IC50 [nM] |
| --- | --- | --- | --- | --- |
| COc1cccc(-c2ncc3c(n2)n(C)c(=O)n3C(=O)N(C)CCC2=CCCCC2)c1 [Example 106, N-[2-(Cyclohex-1-en-1-yl)ethyl]-2-(3-methoxyphenyl)-N,9-dimethyl-8-oxo-8,9-dihydro-7H-purine-7-carboxamide] | 110 | 1 | – | – |
| Cn1c(=O)n(C(=O)N2CCCC2)c2cnc(/C=C/c3ccc(F)cc3)nc21 [Example 5, 2-[(E)-2-(4-Fluorophenyl)ethenyl]-9-methyl-7-(pyrrolidin-1-ylcarbonyl)-7,9-dihydro-8H-purine-8-one] | 98 | 15 | – | – |
| CCN(C)C(=O)n1c(=O)n(C)c2cnc(-c3cccc(OC(F)(F)F)c3)nc21 [compound 341] | 102 | < 1 | – | – |
| Cc1cccc(N2CCN(C(=O)n3c(=O)n(C)c4nc(-c5ccccc5)ncc43)CC2)c1 [Example 129, 9-Methyl-7-{[4-(3-methylphenyl)piperazin-1-yl]carbonyl}-2-phenyl-7,9-dihydro-8H-purine-8-one] | 98 | 7 | – | – |
| Cc1ccc(-c2ncc3c(n2)n(C)c(=O)n3C(=O)N2CCCC2)cc1 [Example 171, 9-Methyl-2-(4-methylphenyl)-7-(pyrrolidin-1-ylcarbonyl)-7,9-dihydro-8H-purine-8-one] | 102 | 19 | – | – |
| Cn1c(=O)n(C(=O)N2CCC2)c2nc(COc3ccccc3OC(F)(F)F)ncc21 [Example 435] | 94 | 12 | – | – |
| Cc1ccc(CCc2ncc3c(n2)n(C(=O)N2CCC2)c(=O)n3C)cc1C [compound 565] | 99 | 10 | – | – |
| CN(C)C(=O)n1c(=O)n(C)c2cnc(CCCC3CCCCC3)nc21 [Example 616] | – | – | 99 | 10 |
| CCN(C)C(=O)n1c(=O)n(C)c2cnc(-c3cccc(Cl)c3)nc21 [compound 342] | 76 | 52 | – | – |
| Cn1c(=O)n(C(=O)N2CCC2)c2nc(-c3ccccc3)ncc21 [compound 352] | 42 | 164 | – | – |
| CN(C)C(=O)n1c(=O)n(C)c2cnc(-c3cccc(OC(F)F)c3)nc21 [Example 331, 2-[3-(Difluoromethoxy)phenyl]-N,N,7-trimethyl-8-oxo-7,8-dihydro-9H-purine-9-carboxamide] | 77 | 33 | – | – |
| Cn1c(=O)n(C(=O)N2CCN(c3cccc(F)c3)CC2)c2cnc(-c3ccccc3)nc21 [Example 124, 7-{[4-(3-Fluorophenyl)piperazin-1-yl]carbonyl}-9-methyl-2-phenyl-7,9-dihydro-8H-purine-8-one] | 101 | 6 | – | – |
| Cn1c(=O)n(C(=O)N2CCCC2)c2cnc(-c3ccc(C(F)(F)F)cc3)nc21 [compound 178] | 96 | 42 | – | – |
| COCCCc1ncc2c(n1)n(C)c(=O)n2C(=O)N1CC(c2cccc(F)c2)C1 [Example 382] | 80 | 5 | – | – |
| COc1cccc(N2CCN(C(=O)n3c(=O)n(C)c4nc(-c5ccccc5)ncc43)CC2)n1 [Example 54, 7-{[4-(6-Methoxypyridin-2-yl)piperazine-1-yl]carbonyl}-9-methyl-2-phenyl-7,9-dihydro-8H-purine-8-one] | 99 | 24 | – | – |
| COc1ccc(CN(C)C(=O)n2c(=O)n(C)c3nc(-c4cccc(OC)c4)ncc32)cc1 [Example 80, N-(4-Methoxybenzyl)-2-(3-methoxyphenyl)-N,9-dimethyl-8-oxo-8,9-dihydro-7H-purine-7-carboxamide] | 92 | 44 | – | – |
| COc1cccc(-c2ncc3c(n2)n(C)c(=O)n3C(=O)N(C)CCC2CCCCC2)c1 [Example 109, N-(2-Cyclohexylethyl)-2-(3-methoxyphenyl)-N,9-dimethyl-8-oxo-8,9-dihydro-7H-purine-7-carboxamide] | 103 | 2 | – | – |
| Cn1c(=O)n(C(=O)N2CCC(CCc3ccc(Cl)cc3)CC2)c2cnc(-c3ccncc3)nc21 [Example 152, 7-({4-[2-(4-Chlorophenyl)ethyl]piperidin-1-yl}carbonyl)-9-methyl-2-(pyridin-4-yl)-7,9-dihydro-8H-purine-8-one] | 102 | 0.6 | – | – |
| Cn1c(=O)n(C(=O)N2CCCC2)c2cnc(-c3cccc([N+](=O)[O-])c3)nc21 [Example 203, 2-(3-nitrophenyl)-9-methyl-7-(pyrrolidin-1-ylcarbonyl)-7,9-dihydro-8H-purine-8-one] | 98 | 24 | – | – |

| SMILES | inhibition at 0.1 µM [1] [%] | IC50 (test substance 0.1 nM to 1 μM) [nM] | inhibition at 0.1 µM [2] [%] | IC50 [nM] |
| --- | --- | --- | --- | --- |
| Cc1cccc(OCc2ncc3c(n2)n(C)c(=O)n3C(=O)N2CCC2)c1 [compound 411] | 45 | 171 | – | – |
| Cn1c(=O)n(C(=O)N2CCC(c3ccccc3)CC2)c2cnc(-c3ccccc3)nc21 [Example 33, 9-Methyl-2-phenyl-7-[(4-phenylpiperidin-1-yl)carbonyl]-7,9-dihydro-8H-purine-8-one] | 91 | 47 | – | – |
| CCN(C)C(=O)n1c(=O)n(C)c2nc(C3CC3)ncc21 [Example 159] | 61 | 81 | – | – |
| Cn1c(=O)n(C(=O)N2CCCC2)c2cnc(-c3ccccc3F)nc21 [Example 166, 2-(2-fluorophenyl)-9-methyl-7-(pyrrolidin-1-ylcarbonyl)-7,9-dihydro-8H-purine-8-one] | 99 | 24 | – | – |
| COCc1ncc2c(n1)n(C)c(=O)n2C(=O)N1CC[C@H](Oc2ccccc2Cl)C1 [Example 491, 7-{[(3S)-3-(2-Chlorophenoxy)pyrrolidin-1-yl]carbonyl}-2-(methoxymethyl)-9-methyl-7,9-dihydro-8H-purine-8-one] | 100 | 2 | – | – |
| Cn1c(=O)n(C(=O)N2CCCC2)c2nc(Cc3ccccc3F)ncc21 [Example 300, 2-(2-Fluorobenzyl)-7-methyl-9-(pyrrolidin-1-ylcarbonyl)-7,9-dihydro-8H-purine-8-one] | 88 | 40 | – | – |
| Cn1c(=O)n(C(=O)N2CCC2)c2cnc(Cc3cccc(F)c3)nc21 [compound 372] | 80 | 32 | – | – |
| CN(C)C(=O)n1c(=O)n(C)c2cnc(CCc3cccc(OC(F)(F)F)c3)nc21 [compound 495] | 100 | 10 | – | – |
| Cc1ccccc1N1CCN(C(=O)n2c(=O)n(C)c3nc(-c4ccccc4)ncc32)CC1 [Example 130, 9-Methyl-7-{[4-(2-methylphenyl)piperazin-1-yl]carbonyl}-2-phenyl-7,9-dihydro-8H-purine-8-one] | 94 | 42 | – | – |
| Cn1c(=O)n(C(=O)N2CCN(c3ncccn3)CC2)c2cnc(-c3ccccc3)nc21 [Example 51, 9-Methyl-2-phenyl-7-{[4-(pyrimidin-2-yl)piperazin-1-yl]carbonyl}-7,9-dihydro-8H-purine-8-one] | 97 | 25 | – | – |
| CN(C)C(=O)n1c(=O)n(C)c2cnc(CCc3cccc(OC(F)F)c3)nc21 [compound 548] | 79 | 27 | – | – |
| CN(C)C(=O)n1c(=O)n(C)c2cnc(CCc3ccc(C4CC4)cc3)nc21 [compound 521] | 85 | 13 | – | – |
| COc1ccccc1Cc1ncc2c(n1)n(C(=O)N1CCCC1)c(=O)n2C [compound 291] | 58 | 75 | – | – |
| Cn1c(=O)n(C(=O)N2CCN(c3ccc(F)cc3)CC2)c2cnc(-c3ccccc3)nc21 [Example 123, 7-{[4-(4-Fluorophenyl)piperazin-1-yl]carbonyl}-9-methyl-2-phenyl-7,9-dihydro-8H-purine-8-one] | 101 | 4 | – | – |
| CC(=O)c1cccc(-c2ncc3c(n2)n(C(=O)N2CCCC2)c(=O)n3C)c1 [Example 238, 2-(3-Acetylphenyl)-7-methyl-9-(pyrrolidin-1-ylcarbonyl)-7,9-dihydro-8H-purine-8-one] | 84 | 58 | – | – |
| CC(C)c1ccc(CCc2ncc3c(n2)n(C(=O)N2CCC2)c(=O)n3C)cc1 [compound 563] | 100 | 7 | – | – |
| COc1cccc(-c2ncc3c(n2)n(C)c(=O)n3C(=O)N2CCN(C3CCCCC3)CC2)c1 [Example 97, 7-[(4-Cyclohexylpiperazin-1-yl)carbonyl]-2-(3-methoxyphenyl)-9-methyl-7,9-dihydro-8H-purine-8-one] | 99 | 37 | – | – |
| Cn1c(=O)n(C(=O)N2CCC2)c2nc(CCc3ccc4c(c3)CCO4)ncc21 [Example 620] | – | – | 87 | 88 |
| Cn1c(=O)n(C(=O)N2CCCC2)c2nc(-c3ccc(C(F)(F)F)cc3)ncc21 [Example 235, 7-Methyl-9-(pyrrolidin-1-ylcarbonyl)-2-[4-(trifluoromethyl)phenyl]-7,9-dihydro-8H-purine-8-one] | 98 | 39 | – | – |
